The numbers were not newly measured in paper PMC10719327, “A dose-escalation study of HP501, a highly selective URAT1 inhibitor, in male Chinese patients with hyperuricemia” (Scientific Reports, 2023), which cites them from elsewhere.

Series [1] has as its system Japanese patients with hyperuricemia. Also on record: method as in PMID 30334639.
The subject of a further series is patients. Details: method as in PMID 29029210. Particulars: lesinurad monotherapy.

For the compound `CC(C)(Sc1ccncc1-c1ccc(C#N)c2ccccc12)C(=O)O` [Verinurad], the “patients with serum creatinine elevated 1.5 times to baseline level” value in series [1] is given as 17.1%.

Regarding `O=C(O)CSc1nnc(Br)n1-c1ccc(C2CC2)c2ccccc12` [lesinurad], the “patients with increased serum creatinine” value in the series with patients is “About 24.30%”.
